Data published in PMC7657476, “An improved whole life cycle culture protocol for the hydrozoan genetic model Clytia hemisphaerica” (Biology Open, 2020).
Square brackets hold non-standard residues; d marks the D form. Ends that are not written are not given here. pGlu = O=C1CC[C@@H](C(=O)O)N1

Test system: Clytia hemisphaerica planula larvae
Assay: Metamorphosis (settlement) induction of planula larvae by synthetic GLW-amide neuropeptides
Assay type: in vivo
Conditions: for Metamorphosis efficiency, Average: peptide concentration not given
Description: (1) Culture planula larvae in MFSW containing penicillin and streptomycin. (2) Wash the surface of large glass slides (75 mm×50 mm) with warm tap water (40–50°C) and dry. Place them in 100 mm diameter petri dishes. (3) Dilute GLW-amide peptide stock solution (1–5 mM in distilled water, stored at −20°C) just prior to use in MFSW (4 ml/large slide). Recommended final concentration for GLW-amide-6 is 0.5 µM. (4) Using a plastic transfer pipette, carefully pour 0.1 ml/cm^2 or more peptide-containing sea water over the glass slide (4 ml for large glass slides, Fig. S1F). (5) Transfer 2.5–3-day-old planulae using a glass pipette. Disperse them as the settlement starts quickly. (6) Cover the dish with a lid to minimize the water evaporation and keep the dish undisturbed. (7) Planula will be firmly settled in several hours after peptide treatment. Transfer slides to polyp tanks, not later than 16 h after induction. (8) Start to feed smashed Artemia once the primary polyps have extended tentacles and open mouths. (9) Once the colony contains multiple gastrozooids, it can be fed normally with live Artemia nauplii.
Metamorphosis of planula larvae was induced by transferring them onto glass slides covered with at least 0.1 ml/cm^2 of sea water containing synthetic neuropeptides (Fig. 2E). A selection of synthetic amidated peptides derived from the neuropeptide precursors Che-PP2 and Che-PP11 ([Takeda et al., 2018]) were tested as metamorphosis inducers (Table 2) on 3-day-old planula larvae obtained by crossing Z13 (male) and Z11 (female) strains. Planula attach firmly onto the slide within a few hours (Fig. 1C, left). Metamorphosis efficiency was measured by successful settlement on the slide at 12 h, as the timing of stalk extension is variable, from several hours to days.

Substance | Planula settlement efficiency (previous conditions, 1 µM peptide, variable (Fig. 7)) | Planula settlement on the glass slide (0.3 µM peptide, settlement scored at 12 h, 5 repeats of 20 planulae (Fig. 7)) | Lowest concentration active in inducing metamorphosis (3-day-old planulae (Z13 x Z11) on glass slide in sea water containing peptide, settlement scored at 12 h, 5 repeats of 20 planulae (Fig. 7)) | Planula settlement efficiency (newly designed peptide, concentration not printed at this place (Fig. 7)) | Metamorphosis efficiency, Average (substrate agarose (2%), sample size 96–98, 4 repeats) | Metamorphosis efficiency, Average (substrate glass, sample size 90–99, 5 repeats) | Metamorphosis efficiency, Average (substrate plastic (polypropyrene), sample size 90–100, 5 repeats)
GNPPGLW-NH2 [GLW-amide-2, synthetic GLW-amide neuropeptide from Clytia transcriptome (precursor PP11), previously used to trigger metamorphosis] | ≥ 40% | – | – | – | – | – | –
[pGlu]QQAPKGLW-NH2 [GLW-amide-6, synthetic GLW-amide neuropeptide derived from precursor Che-PP11] | – | virtually all | 0.3 µM | ~100% | 96.5% | 98.6% | 99.9%
